{"source": "ChEMBL document CHEMBL5108034", "about": "“Discovery of novel Quinazoline-based KRAS G12C inhibitors as potential anticancer agents” (Bioorg Med Chem, 2022)", "key": {"[1]": {"experiment": "Toxicity in nude mouse xenografted with human NCI-H358 cells assessed as morphological abnormalities in heart at 40 mg/kg, ip administered every other day for 14 days by hematoxylin and eosin staining based microscopic analysis", "assay_type": "organism-based", "conditions": "in vivo, 336 h, time 14 day"}, "[2]": {"experiment": "Toxicity in nude mouse xenografted with human NCI-H358 cells assessed as change in lymphocyte level at 40 mg/kg, ip administered every other day for 14 days by serum biochemical assay", "assay_type": "organism-based", "conditions": "in vivo, 336 h, time 14 day"}, "NCI-H358 [3]": {"tested_on": "NCI-H358", "experiment": "Induction of apoptosis in human NCI-H358 cells assessed as dead cells at 0.5 uM incubated for 24 hrs by Annexin V-FITC/PI staining based flow cytometric analysis (reference value: 4.2 %)", "assay_type": "functional"}, "[4]": {"experiment": "Toxicity in nude mouse xenografted with human NCI-H358 cells assessed as change in granulocyte level at 40 mg/kg, ip administered every other day for 14 days by serum biochemical assay", "assay_type": "organism-based", "conditions": "in vivo, 336 h, time 14 day"}, "NCI-H358 [5]": {"tested_on": "NCI-H358", "experiment": "Induction of apoptosis in human NCI-H358 cells assessed as late apoptotic cells at 0.5 uM incubated for 24 hrs by Annexin V-FITC/PI staining based flow cytometric analysis (reference value: 14.7 %)", "assay_type": "functional"}, "SW-620": {"tested_on": "SW-620", "experiment": "Antiproliferative activity against human SW620 cells harboring KRAS G12V mutant assessed as inhibition of cell growth incubated for 24 hrs by MTT assay", "assay_type": "functional, cell-based", "conditions": "SW-620, 24 h"}, "HeLa": {"tested_on": "HeLa", "experiment": "Antiproliferative activity against human HeLa cells harboring wild type KRAS assessed as inhibition of cell growth incubated for 24 hrs by MTT assay", "assay_type": "functional, cell-based"}, "NCI-H358 [6]": {"tested_on": "NCI-H358", "experiment": "Induction of apoptosis in human NCI-H358 cells assessed as early apoptotic cells at 1 uM incubated for 24 hrs by Annexin V-FITC/PI staining based flow cytometric analysis (reference value: 1.47 %)", "assay_type": "functional"}, "[7]": {"experiment": "Toxicity in nude mouse xenografted with human NCI-H358 cells assessed as change in PCT level at 40 mg/kg, ip administered every other day for 14 days by serum biochemical assay", "assay_type": "organism-based", "conditions": "in vivo, 336 h, time 14 day"}, "[8]": {"experiment": "Selectivity index, ratio of IC50 for antiproliferative activity against human SW620 cells harboring KRAS G12V mutant to IC50 for antiproliferative activity against human NCI-H358 cells harboring KRAS G12C mutant", "assay_type": "functional"}, "[9]": {"experiment": "Toxicity in nude mouse xenografted with human NCI-H358 cells assessed as change in hemoglobin level at 40 mg/kg, ip administered every other day for 14 days by serum biochemical assay", "assay_type": "organism-based", "conditions": "in vivo, 336 h, time 14 day"}, "NCI-H358 [10]": {"tested_on": "NCI-H358", "experiment": "Induction of apoptosis in human NCI-H358 cells assessed as dead cells at 0.25 uM incubated for 24 hrs by Annexin V-FITC/PI staining based flow cytometric analysis (reference value: 4.2 %)", "assay_type": "functional"}, "[11]": {"experiment": "Toxicity in nude mouse xenografted with human NCI-H358 cells assessed as change in basophil level at 40 mg/kg, ip administered every other day for 14 days by serum biochemical assay", "assay_type": "organism-based", "conditions": "in vivo, 336 h, time 14 day"}, "NCI-H358 [12]": {"tested_on": "NCI-H358", "experiment": "Induction of apoptosis in human NCI-H358 cells assessed as dead cells at 1 uM incubated for 24 hrs by Annexin V-FITC/PI staining based flow cytometric analysis (reference value: 4.2 %)", "assay_type": "functional"}, "NCI-H358 [13]": {"tested_on": "NCI-H358", "experiment": "Induction of apoptosis in human NCI-H358 cells assessed as early apoptotic cells at 0.25 uM incubated for 24 hrs by Annexin V-FITC/PI staining based flow cytometric analysis (reference value: 1.47 %)", "assay_type": "functional"}, "NCI-H23": {"tested_on": "NCI-H23", "experiment": "Inhibition of colony formation in human NCI-H23 cells assessed as suppression of colony forming ability at 1 uM incubated for 24 hrs followed by replacement with fresh medium without compounds and measured after 2 weeks by crystal violet staining based analysis", "assay_type": "functional"}, "NCI-H358 [14]": {"tested_on": "NCI-H358", "experiment": "Induction of apoptosis in human NCI-H358 cells assessed as viable cells at 0.5 uM incubated for 24 hrs by Annexin V-FITC/PI staining based flow cytometric analysis (reference value: 79.7 %)", "assay_type": "functional", "conditions": "read-out: Activity"}, "[15]": {"experiment": "Toxicity in nude mouse xenografted with human NCI-H358 cells assessed as change in red cell distribution width at 40 mg/kg, ip administered every other day for 14 days by serum biochemical assay", "assay_type": "organism-based", "conditions": "in vivo, 336 h, time 14 day"}, "[16]": {"tested_on": "GTPase KRas (Homo sapiens), P01116 [G12C]", "experiment": "Binding affinity to N-terminal His tagged recombinant human KRAS G12C mutant (2 to 186 residues) expressed in Escherichia coli assessed as change in entropy by ITC analysis"}, "NCI-H358 [17]": {"tested_on": "NCI-H358", "experiment": "Inhibition of colony formation in human NCI-H358 cells incubated for 24 hrs followed by replacement with fresh medium without compounds and measured after 2 weeks by crystal violet staining based analysis", "assay_type": "functional, cell-based", "conditions": "dose 0.25-5 µM, DDE = dose-dependent effect"}, "[18]": {"experiment": "Toxicity in nude mouse xenografted with human NCI-H358 cells assessed as change in eosinophil level at 40 mg/kg, ip administered every other day for 14 days by serum biochemical assay", "assay_type": "organism-based", "conditions": "in vivo, 336 h, time 14 day"}, "NCI-H358 [19]": {"tested_on": "NCI-H358", "experiment": "Antitumor activity against human NCI-H358 cells xenografted in nude mouse assessed as tumor growth inhibition at 40 mg/kg, ip administered every other day for 14 days relative to control", "assay_type": "functional", "conditions": "NCI-H358, 336 h, time 14 day, read-out: TGI"}, "[20]": {"experiment": "Selectivity index, ratio of IC50 for antiproliferative activity against human HCT-116 cells harboring KRAS G13D mutant to IC50 for antiproliferative activity against human NCI-H23 cells harboring KRAS G12C mutant", "assay_type": "functional"}, "HCT-116": {"tested_on": "HCT-116", "experiment": "Antiproliferative activity against human HCT-116 cells harboring KRAS G13D mutant assessed as inhibition of cell growth incubated for 24 hrs by MTT assay", "assay_type": "functional, cell-based", "conditions": "HCT-116, 24 h"}, "[21]": {"experiment": "Toxicity in nude mouse xenografted with human NCI-H358 cells assessed as change in neutrophil level at 40 mg/kg, ip administered every other day for 14 days by serum biochemical assay", "assay_type": "organism-based", "conditions": "in vivo, 336 h, time 14 day"}}, "data": [{"smiles": "COc1ccc(Cl)cc1-c1c(Cl)cc2c(N3CCN(C(=O)c4ccc([N+](=O)[O-])o4)CC3)ncnc2c1F", "values": [{"measurement": "Activity", "setting": "[1]", "value": "Non-Toxic"}, {"measurement": "Activity", "setting": "[2]", "value": "Non-Toxic"}, {"measurement": "Activity", "setting": "NCI-H358 [3]", "value": 3.21, "unit": "%"}, {"measurement": "Activity", "setting": "[4]", "value": "Non-Toxic"}, {"measurement": "Activity", "setting": "NCI-H358 [5]", "value": 17.9, "unit": "%"}, {"measurement": "IC50", "setting": "SW-620", "value": 2230, "unit": "nM"}, {"measurement": "IC50", "setting": "HeLa", "value": 4.75, "unit": "µM"}, {"measurement": "Activity", "setting": "NCI-H358 [6]", "value": 15.1, "unit": "%"}, {"measurement": "Activity", "setting": "[7]", "value": "Non-Toxic"}, {"measurement": "Ratio IC50", "setting": "[8]", "value": 3}, {"measurement": "Activity", "setting": "[9]", "value": "Non-Toxic"}, {"measurement": "Activity", "setting": "NCI-H358 [10]", "value": 4.2, "unit": "%"}, {"measurement": "Activity", "setting": "[11]", "value": "Non-Toxic"}, {"measurement": "Activity", "setting": "NCI-H358 [12]", "value": 1.66, "unit": "%"}, {"measurement": "Activity", "setting": "NCI-H358 [13]", "value": 4.15, "unit": "%"}, {"measurement": "inhibition at 1 µM", "setting": "NCI-H23", "value": 100, "unit": "%"}, {"measurement": "viability at 0.5 µM", "setting": "NCI-H358 [14]", "value": 73.2, "unit": "%"}, {"measurement": "Activity", "setting": "[15]", "value": "Non-Toxic"}, {"measurement": "-TdeltaS", "setting": "[16]", "value": -4, "unit": "kcal/mol"}, {"measurement": "inhibition", "setting": "NCI-H358 [17]", "value": "Dde"}, {"measurement": "Activity", "setting": "[18]", "value": "Non-Toxic"}, {"measurement": "inhibition in vivo at 40 mg/kg", "setting": "NCI-H358 [19]", "value": 47, "unit": "%"}, {"measurement": "Ratio IC50", "setting": "[20]", "value": 3}, {"measurement": "IC50", "setting": "HCT-116", "value": 2070, "unit": "nM"}, {"measurement": "Activity", "setting": "[21]", "value": "Non-Toxic"}]}]}
